From ChEMBL document CHEMBL1153200, “Discovery of 3,6-dihydro-2H-pyran as a morpholine replacement in 6-aryl-1H-pyrazolo[3,4-d]pyrimidines and 2-arylthieno[3,2-d]pyrimidines: ATP-competitive inhibitors of the mammalian target of rapamycin (mTOR)” (Bioorg Med Chem Lett, 2010)

Key:
[1] = Selectivity ratio, IC50 for PI3Kalpha to IC50 for human mTOR
[2] = target: Phosphatidylinositol 4,5-bisphosphate 3-kinase catalytic subunit alpha isoform (Homo sapiens, UniProt P42336); assay: Inhibition of PI3Kalpha by fluorescence polarization assay
LNCaP = assay: Cytotoxicity against human LNCAP cells after 1 to 2 hrs by MTS assay; assay type: functional, cell-based
[3] = target: Serine/threonine-protein kinase mTOR (Homo sapiens, UniProt P42345); assay: Inhibition of mTOR in HEK293 cells by DELFIA assay; assay type: cell-based
[4] = Half life in nude mouse microsomes; assay type: ADME, Microsome

Chain of Phosphatidylinositol 4,5-bisphosphate 3-kinase catalytic subunit alpha isoform (P42336 whole entry, canonical isoform): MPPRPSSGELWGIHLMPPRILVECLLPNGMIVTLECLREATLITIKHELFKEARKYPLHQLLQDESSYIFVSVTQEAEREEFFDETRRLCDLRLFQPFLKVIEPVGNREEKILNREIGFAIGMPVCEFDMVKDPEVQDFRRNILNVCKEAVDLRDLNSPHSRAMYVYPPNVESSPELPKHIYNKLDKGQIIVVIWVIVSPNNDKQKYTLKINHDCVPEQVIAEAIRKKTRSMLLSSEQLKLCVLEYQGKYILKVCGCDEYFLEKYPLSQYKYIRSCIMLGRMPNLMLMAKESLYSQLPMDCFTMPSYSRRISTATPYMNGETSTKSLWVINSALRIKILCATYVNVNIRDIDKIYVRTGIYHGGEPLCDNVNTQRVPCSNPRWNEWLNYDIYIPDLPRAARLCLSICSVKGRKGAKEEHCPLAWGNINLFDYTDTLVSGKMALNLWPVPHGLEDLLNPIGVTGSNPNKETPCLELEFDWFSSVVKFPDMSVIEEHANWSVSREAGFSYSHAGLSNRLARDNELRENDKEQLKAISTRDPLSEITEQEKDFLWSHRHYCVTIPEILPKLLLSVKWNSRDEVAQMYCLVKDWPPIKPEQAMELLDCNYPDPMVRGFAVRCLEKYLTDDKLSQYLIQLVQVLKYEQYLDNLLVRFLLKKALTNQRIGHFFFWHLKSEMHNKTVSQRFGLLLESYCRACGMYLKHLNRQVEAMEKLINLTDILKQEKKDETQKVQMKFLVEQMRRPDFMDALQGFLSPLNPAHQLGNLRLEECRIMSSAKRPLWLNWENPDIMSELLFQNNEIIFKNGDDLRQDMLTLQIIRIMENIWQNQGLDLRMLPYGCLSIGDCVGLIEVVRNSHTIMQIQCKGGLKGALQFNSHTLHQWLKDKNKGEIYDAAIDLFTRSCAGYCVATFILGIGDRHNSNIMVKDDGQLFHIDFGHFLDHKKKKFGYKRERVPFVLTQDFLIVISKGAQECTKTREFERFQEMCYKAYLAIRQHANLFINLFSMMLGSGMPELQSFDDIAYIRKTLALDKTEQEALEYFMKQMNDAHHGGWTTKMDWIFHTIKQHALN

Ratio IC50 [1] | IC50 [2] [µM] | IC50 [3] [µM] | half-life [4] [min] | IC50 ([3]; hek293) [µM] | SMILES | IC50 (LNCaP) [µM]
4 | 0.028 | 0.0072 | 21 |  | O=C(Nc1ccccc1)Nc1ccc(-c2nc(C3=CCOCC3)c3sccc3n2)cc1 | 0.8
525 |  |  | 22 | 0.0006 | O=C(NCCF)Nc1ccc(-c2nc(N3CCOCC3)c3cnn(CC(F)(F)F)c3n2)cc1 | 0.06
50 |  | 0.0002 | > 30 |  | O=C(Nc1ccc(-c2nc(N3CCOCC3)c3cnn(CC(F)(F)F)c3n2)cc1)Nc1cccnc1 | < 0.027
32 | 0.035 | 0.0011 | > 30 |  | O=C(Nc1ccc(-c2nc(C3=CCOCC3)c3sccc3n2)cc1)Nc1cccnc1 | 0.21
194 |  |  | 26 | 0.001 | CNC(=O)Nc1ccc(-c2nc(N3CCOCC3)c3cnn(CC(F)(F)F)c3n2)cc1 | 0.23
560 | 1.37 | 0.0025 | 6 |  | O=C(NCCF)Nc1ccc(-c2nc(C3=CCOCC3)c3sccc3n2)cc1 | 1.3
3.3 | 0.059 | 0.018 |  |  | Oc1cccc(-c2nc(C3=CCOCC3)c3cnn(-c4ccccc4)c3n2)c1 | 
100 | 0.2 | 0.002 | 13 |  | CNC(=O)Nc1ccc(-c2nc(C3=CCOCC3)c3cnn(CC(F)(F)F)c3n2)cc1 | 0.26
2300 |  | 0.001 | > 30 |  | O=C(NCCF)Nc1ccc(-c2nc(C3=CCOCC3)c3cnn(CC(F)(F)F)c3n2)cc1 | 0.072
15 | 0.027 | 0.0018 | > 30 |  | O=C(Nc1ccncc1)Nc1ccc(-c2nc(C3=CCOCC3)c3sccc3n2)cc1 | 0.2
66 |  | 0.001 | 25 |  | O=C(Nc1ccc(-c2nc(C3=CCOCC3)c3cnn(CC(F)(F)F)c3n2)cc1)Nc1cccnc1 | 0.38
2 | 1.01 | 0.5 |  |  | Oc1cccc(-c2nc(C3CCOCC3)c3cnn(-c4ccccc4)c3n2)c1 | 
319 | 1.05 | 0.0033 | 3 |  | CCNC(=O)Nc1ccc(-c2nc(C3=CCOCC3)c3sccc3n2)cc1 | 0.47
